{
  "source": "paper PMC5324060",
  "about": "“Evolutionary, computational, and biochemical studies of the salicylaldehyde dehydrogenases in the naphthalene degradation pathway” (Scientific Reports, 2017)",
  "type_in_all_cases": "biochemical",
  "key": {"SALDan": {"biological_target": "SALDan (Alteromonas naphthalenivorans, UniProt F5Z5S7)", "sequence (F5Z5S7 entry or part of it)": "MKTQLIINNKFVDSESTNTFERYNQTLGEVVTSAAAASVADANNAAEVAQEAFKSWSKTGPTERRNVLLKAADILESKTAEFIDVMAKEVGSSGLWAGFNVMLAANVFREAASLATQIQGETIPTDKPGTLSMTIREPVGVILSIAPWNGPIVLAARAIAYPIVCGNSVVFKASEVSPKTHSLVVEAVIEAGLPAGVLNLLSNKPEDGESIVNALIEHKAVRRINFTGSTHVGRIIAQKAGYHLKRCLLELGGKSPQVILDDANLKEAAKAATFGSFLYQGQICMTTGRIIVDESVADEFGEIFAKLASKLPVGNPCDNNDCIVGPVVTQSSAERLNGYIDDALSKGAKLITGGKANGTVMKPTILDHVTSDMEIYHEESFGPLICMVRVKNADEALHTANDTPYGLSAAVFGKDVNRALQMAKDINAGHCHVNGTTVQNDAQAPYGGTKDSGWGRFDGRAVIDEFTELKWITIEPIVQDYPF", "assay": "Kinetics assay of wild-type recombinant SALDan (NADH appearance at 340 nm)", "description": "(§1) The activity of the purified proteins was determined using SAL as a substrate. A reaction volume of 500 μL was prepared in a microfuge tube containing purified SALDan (0.1 μM), SAL (100 μM), and NAD^+ (100 μM) dissolved in 50 mM HEPES (pH 7.5) containing 150 mM NaCl. The SALDan activity was monitored as the rate of appearance of NADH at 340 nm spectrophotometrically. The specific activity of the enzyme (units.mg^−1.min^−1) was expressed as the amount of enzyme required to produce 1 μM of NADH under the assay conditions. The influence of pH on the activity was determined using the protocol described above, with the exception of replacing the […] buffer with 50 mM sodium acetate (pH 3.0–5.0), 50 mM 2-(N-morpholino)ethanesulfonic acid (pH 5.0–7.5), 50 mM HEPES (pH 8.0–8.5), 50 mM glycine (pH 9.0–10.0), or 50 mM sodium phosphate (pH 11.0)[52]. All assays were performed at the optimal temperature. To determine the influence of temperature on the enzymatic activity, the reactions were performed at 15, 20, 25, 30, 35, 40, and 45 °C, respectively.\n(§2) For kinetic studies of aldehydes, the initial velocities of the enzymatic reactions were examined by varying the concentrations of various aromatic as well as aliphatic aldehydes in the presence of NAD^+ (100 μM) and the enzyme (0.1 μM) under optimal conditions. For substrates that absorb at 340 nm, thus interfering with the calculation of the initial rate, their molar coefficients (ε) were calculated as described previously[64] and are presented in Table S1. The apparent kinetic parameters were calculated using the equation: […]\n(§3) The apparent kinetic parameters for NAD^+ were determined at a fixed concentration of SAL (50 μM) and a varying concentration of NAD^+ (0–500 μM). The apparent Km and Vmax values were calculated by using the equation: […]\n(§4) All the activity data were determined by three separate experiments with at least three technical replicates."}, "SALDan V153A": {"biological_target": "T1, SALDan V153A (Alteromonas naphthalenivorans, UniProt F5Z5S7, V153A)", "T1 sequence (F5Z5S7 1-483 V153A)": "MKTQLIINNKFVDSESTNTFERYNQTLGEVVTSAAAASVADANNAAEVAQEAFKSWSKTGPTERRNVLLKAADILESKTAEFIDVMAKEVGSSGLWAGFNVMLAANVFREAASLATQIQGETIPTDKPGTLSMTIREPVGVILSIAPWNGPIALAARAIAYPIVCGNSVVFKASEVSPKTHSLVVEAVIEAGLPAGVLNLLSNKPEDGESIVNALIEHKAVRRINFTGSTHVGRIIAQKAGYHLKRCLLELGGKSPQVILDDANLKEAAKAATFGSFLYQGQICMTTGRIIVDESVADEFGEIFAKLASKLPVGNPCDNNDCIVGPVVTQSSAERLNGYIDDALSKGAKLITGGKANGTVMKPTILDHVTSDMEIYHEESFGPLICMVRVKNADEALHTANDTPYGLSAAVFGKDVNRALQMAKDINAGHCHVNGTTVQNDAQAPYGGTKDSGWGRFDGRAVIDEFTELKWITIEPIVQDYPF", "assay": "Kinetics assay of SALDan mutant V153A", "settings": "V153A mutant versus wild-type", "from_the_text": "(§5) The primers used for the single amino acid mutant were as follows: N149A, forward primer, 5′-ATAGCACCGTGGGCCGGGCCTATTGTATTA-3′; reverse primer, 5′-TAATACAATAGGCCCGGCCCACGGTGCTAT-3′; V153A, forward primer, 5′-AATGGGCCTATTGTATTAGCGGCTCGG-3′; reverse primer, 5′-CCGAGCCGCTAATACAATAGGCCCATT-3′; E175A, forward primer, 5′-[…]-3′, reverse primer, 5′-GTTGGGACAGTCTTCCAGCCC-3′; E175A, forward primer, 5′-ATGCTCCACCAAATTGGGCAC-3′; reverse primer, 5′-TTTAGGACTTACTTCTGAAGCTTTAAA-3′. The PCR was performed using Pfu polymerase, and the cycling parameters were: 95 °C for 5 min (one cycle), 95 °C for 30 s, and 68 °C for 12 min (12 cycles). After amplification, the PCR mixture was digested with DpnI and then transformed into E. coli BL21(DE3) by electroporation. The mutants were confirmed by DNA sequencing.\nThe activity of the purified proteins was determined using SAL as a substrate. […] The SALDan activity was monitored as the rate of appearance of NADH at 340 nm spectrophotometrically. The specific activity of the enzyme (units.mg^−1.min^−1) was expressed as the amount of enzyme required to produce 1 μM of NADH under the assay conditions. The influence of pH on the activity was determined using the protocol described above, with the exception of replacing the Tris-HCl buffer with 50 mM sodium acetate (pH 3.0–5.0), 50 mM 2-(N-morpholino)ethanesulfonic acid (pH 5.0–7.5), 50 mM HEPES (pH 8.0–8.5), 50 mM glycine (pH 9.0–10.0), or 50 mM sodium phosphate (pH 11.0)[52]. […]\nas §2"}, "SALDan E175A": {"biological_target": "T2, SALDan E175A (Alteromonas naphthalenivorans, UniProt F5Z5S7, E175A)", "T2 sequence (F5Z5S7 1-483 E175A)": "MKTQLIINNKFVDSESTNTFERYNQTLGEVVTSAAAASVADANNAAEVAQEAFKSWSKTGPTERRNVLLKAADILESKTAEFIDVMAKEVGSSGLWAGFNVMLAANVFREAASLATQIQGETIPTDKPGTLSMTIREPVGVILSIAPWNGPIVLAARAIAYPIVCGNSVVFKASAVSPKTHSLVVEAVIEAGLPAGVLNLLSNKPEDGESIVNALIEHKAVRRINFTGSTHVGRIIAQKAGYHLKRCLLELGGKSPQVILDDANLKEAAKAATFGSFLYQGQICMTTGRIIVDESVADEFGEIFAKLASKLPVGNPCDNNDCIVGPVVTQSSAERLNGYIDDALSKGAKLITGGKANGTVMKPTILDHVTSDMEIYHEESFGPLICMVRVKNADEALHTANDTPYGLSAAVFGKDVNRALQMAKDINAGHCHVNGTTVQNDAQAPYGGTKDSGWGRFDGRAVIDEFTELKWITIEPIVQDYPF", "assay": "Kinetics assay of SALDan mutant E175A", "from_the_text": "as §5, §1, §2, §3, §4"}, "[1]": {"settings": "wild-type, “—” means not observed, read-out: App Ki (substrate inhibition)"}, "[2]": {"settings": "wild-type, aldehyde varied at NAD^+ 100 μM, enzyme 0.1 μM, for NAD^+: SAL fixed 50 μM"}},
  "note": "Where two headings read alike, the source gives them in different places.",
  "data": [
    {"smiles": "O=Cc1ccccc1Cl", "note": "[2-Chlorobenzaldehyde]", "values": [
      {"measurement": "Ki", "setting": "SALDan", "value": "356 ± 40.1", "unit": "µM"}
    ]},
    {"smiles": "O=Cc1ccc(Cl)cc1", "note": "[4-Chlorobenzaldehyde]", "values": [
      {"measurement": "Ki", "setting": "SALDan; [1]", "value": "132 ± 18.9", "unit": "µM"}
    ]},
    {"smiles": "CCCC=O", "note": "[Butyraldehyde]", "values": [
      {"measurement": "App Vmax", "setting": "SALDan; [2]", "value": "5.9 ± 1.0", "unit": "U/mg"},
      {"measurement": "App kcat", "setting": "SALDan; [2]", "value": "14.3 ± 2.8", "unit": "s⁻¹"},
      {"measurement": "Km", "setting": "SALDan; wild-type, aldehyde varied at NAD^+ 100 μM, enzyme 0.1 μM, for NAD^+: SAL fixed 50 μM, NAD^+ 0–500 μM, read-out: App Km", "value": "3.2 ± 0.235", "unit": "mM"}
    ]},
    {"smiles": "O=Cc1ccc2ccccc2c1", "note": "[2-Naphthaldehyde]", "values": [
      {"measurement": "Ki", "setting": "SALDan; [1]", "value": "249 ± 22.5", "unit": "µM"}
    ]},
    {"smiles": "O=Cc1ccccc1", "note": "[Benzaldehyde]", "values": [
      {"measurement": "Ki", "setting": "SALDan", "value": "563 ± 87.6", "unit": "µM"}
    ]},
    {"smiles": "NC(=O)c1ccc[n+]([C@@H]2O[C@H](COP(=O)([O-])OP(=O)(O)OC[C@H]3O[C@@H](n4cnc5c(N)ncnc54)[C@H](O)[C@@H]3O)[C@@H](O)[C@H]2O)c1", "note": "[NAD^+, nicotinamide adenine dinucleotide]", "values": [
      {"measurement": "effect on the kinetic parameters", "setting": "SALDan V153A", "value": "no significant effect"},
      {"measurement": "change of apparent Km value", "setting": "SALDan E175A; E175A mutant versus wild-type", "value": "increased by about two times"},
      {"measurement": "change of kcat/Km (catalytic efficiency)", "setting": "SALDan E175A; E175A mutant versus wild-type", "value": "decreased by four times"},
      {"measurement": "increase of Km", "setting": "SALDan E175A; mutation of Glu175 versus wild-type (Discussion)", "value": 5, "unit": "fold"}
    ]}
  ]
}
